“Also recorded” adds a separate entry of the source. Numbered stars: 1 amine (or outer) side, 2 acyl side, 3 side chain; on linkers, the order of the positions; unused ones are H or OH. Bridge positions count the residues as written; N and C are the ends. Peptide text beside a SMILES is read from it. X1 = Nc1nc(CC[*:1])cc(CC[*:2])n1
What was measured:
[1] = biological target: monomeric version of RAD51 (HumRadA22) (Pyrococcus furiosus, UniProt O74036); test: Fluorescence polarisation (FP) competition assay: displacement of fluorescein-labelled BRC4 repeat; type: binding, archaeal RadA mutant with human Rad51 surface residues; settings: read-out: FP competition KD, nM, Stapled; stapled product (linker DVT or DVP as in Table 1); 100 nM HumRadA22, 10 nM BRC4-fluorescein; 20 mM CHES pH 9.5, 150 mM NaCl, 0.1% BSA, 0.1% Tween-20; KD calculated from IC50; single titration, three technical replicates per point
From the text: We prepared all stapled peptides from small-scale bacterial cultures as GB1/C-His8 fusions and cyclised them with the DVT linker. For peptides SP10, SP11, SP12 and SP15, correct stapling was confirmed by MS, showing a similar composition to SP2 (Fig. S15–S18 ^†). Thus, we confirm that the pseudo-dilution approach is robust in yielding almost exclusively the cyclised product, irrespective of whether a helical or non-helical motif is being constrained. To examine the effect of introducing a covalent staple on affinity, a mock reaction was done in parallel for each peptide by splitting the IMAC elution into two halves and adding DMSO to the mock control instead of the linker. TCEP (500 μM) was included in the mock reaction to maintain the peptide in linear form by preventing disulfide formation. The peptides were tested in a fluorescence polarisation (FP) assay monitoring the displacement of a fluorescently-labelled BRC4 repeat from a monomeric version of RAD51 (HumRadA22), as reported previously.[25] […]
Fluorescence polarisation competition assay
FP competition assay was a modified version of a protocol described previously. Fluorescein-labelled HsBRC4 probe for this assay was kindly provided by Dr Laurens Lindenburg (Hollfelder group, Department of Biochemistry, University of Cambridge). Black 384-well flat-bottom microplates (Corning, 3821) were used with a 40 μl final reaction volume in all measurements. Following buffer conditions were used: 20 mM CHES pH 9.5, 150 mM NaCl, 0.1% BSA, 0.1% Tween-20. Each reaction contained 100 nM HumRadA22 and 10 nM BRC4-fluorescein. Two-fold serial dilutions of stapled peptides were added to the reactions. A free probe control reaction containing only 10 nM BRC4-fluorescein was used to calibrate gain and focal height. FP measurements were performed on Pherastar FX or Clariostar Plus (BMG Labtech) plate readers equipped with an FP 485-520-520 optic modules. Binding curves were fitted using the four-parameter logistic model with a variable Hill slope using Prism software (Graphpad). Regression fitting was performed using the least squares optimisation algorithm.
KD values were estimated from the fitted IC 50 parameters using a previously reported

[2] = tested on: RAD51 foci in U2OS cells; test: Immunofluorescence of IR-induced RAD51 foci formation; type: cell-based, human; settings: 40 μM peptide for 1 hour, then 3 Gy IR or no radiation, 3 hours recovery, five independent experiments
Method: We monitored the ability of SP30 and SP31 to disrupt IR-induced RAD51 foci formation using IF. Cells were pre-incubated with the peptides or with vehicle (control), after which they were either treated with no radiation or with 3 Gy IR and imaged after a 3 hours recovery. We observed RAD51 foci in the absence of peptide and IR treatment, which likely reflects recombination events associated with the basal replicative stress of U2OS cells (Fig. 5 and S4 ^†). As expected, IR treatment of control cells leads to an apparent increase in the number of RAD51 foci (Fig. 5 and S4 ^†). […] We also tested whether a linear version of SP31 (L31) also affects IR-induced and baseline foci counts in five independent experiments (Fig. S5 and S6 ^†). […] It is possible that in some of the experiments the unstapled cysteines of L31 formed a disulfide bridge in the oxidising environment of cell culture, which protected it against proteolytic degradation, similarly to chemical stapling.
(A) Representative immunofluorescence images of U2OS cells incubated with SP30 (40 μM, SP30), SP31 (40 μM, SP31) or vehicle alone (control) for 1 hour, after which they were treated with 3 Gy ionising radiation (3 Gy 3 h) or no radiation (noIR) and allowed to recover for 3 hours. Cells were stained with α-RAD51 and Hoechst 33342 as indicated. Scale bar is 10 μm. […]

Row | SMILES | Kd [1] [nM] | Effect on number of RAD51 foci [2]
1 | CC(C)C[C@@H]1NC(=O)[C@H](CCCCN)NC(=O)[C@H](CCCCN)NC(=O)CNC(=O)[C@H](CO)NC(=O)[C@H](C)NC(=O)[C@H]([C@@H](C)O)NC(=O)[C@H](CO)NC(=O)[C@H](Cc2ccccc2)NC(=O)CNC(=O)[C@H](CO)NC(=O)[C@@H](NC(=O)CNC(=O)CNC(=O)[C@H](CCCNC(=N)N)NC(=O)[C@H](CCCNC(=N)N)NC(=O)[C@H](CCCNC(=N)N)NC(=O)[C@H](CCCNC(=N)N)NC(=O)[C@H](CCCNC(=N)N)NC(=O)[C@H](CCCNC(=N)N)NC(=O)[C@H](CCCNC(=N)N)NC(=O)[C@H](CCCNC(=N)N)NC(=O)[C@H](CCCNC(=N)N)NC(=O)CN)CSCCc2cc(nc(N)n2)CCSC[C@@H](C(=O)N[C@@H](CCC(N)=O)C(=O)N[C@@H](CCCCN)C(=O)N[C@@H](C)C(=O)N[C@H](C(=O)N[C@@H](CCCCN)C(=O)N[C@@H](CC(C)C)C(=O)N[C@@H](Cc2ccccc2)C(=O)N[C@@H](CO)C(=O)NCC(=O)O)C(C)C)NC(=O)[C@H](C)NC(=O)[C@H](CCC(N)=O)NC(=O)[C@H]([C@@H](C)O)NC(=O)[C@H](CO)NC(=O)[C@H](C(C)C)NC(=O)[C@H](CC(N)=O)NC1=O [SP31] (H-GRRRRRRRRRGGCSGFSTASGKKLNVSTQACQKAVKLFSG-OH; linker 13-31 via X1) | 14 | significantly reduces the number of RAD51 foci in both IR-treated and untreated cells; also recorded: disrupts RAD51 foci formation
2 | CC(C)C[C@@H]1NC(=O)[C@H](CCCCN)NC(=O)[C@H](CCCCN)NC(=O)CNC(=O)[C@H](CO)NC(=O)[C@H](C)NC(=O)[C@H]([C@@H](C)O)NC(=O)[C@H](CO)NC(=O)[C@H](Cc2ccccc2)NC(=O)CNC(=O)[C@H](CO)NC(=O)[C@@H](NC(=O)CN)CSCCc2cc(nc(N)n2)CCSC[C@@H](C(=O)N[C@@H](CCC(N)=O)C(=O)N[C@@H](CCCCN)C(=O)N[C@@H](C)C(=O)N[C@H](C(=O)N[C@@H](CCCCN)C(=O)N[C@@H](CC(C)C)C(=O)N[C@@H](Cc2ccccc2)C(=O)N[C@@H](CO)C(=O)NCC(=O)O)C(C)C)NC(=O)[C@H](C)NC(=O)[C@H](CCC(N)=O)NC(=O)[C@H]([C@@H](C)O)NC(=O)[C@H](CO)NC(=O)[C@H](C(C)C)NC(=O)[C@H](CC(N)=O)NC1=O [SP30] (H-GCSGFSTASGKKLNVSTQACQKAVKLFSG-OH; linker 2-20 via X1) | 13 | but not SP30, significantly reduces the number of RAD51 foci
